Values of other authors, collected in patent publication US11278709B1, “Drug delivery device and methods for using same” (Pocket Naloxone Corp., priority 2021, dated 2022).

Conditions: 4 mg dose via a nasal spray

For `C=CCN1CC[C@]23c4c5ccc(O)c4O[C@H]2C(=O)CC[C@@]3(O)[C@H]1C5` [naloxone], the AUClast is listed as 7.95 ng·h/mL and the Cmax is listed as 4.83 ng/mL.
